Measurements from patent publication US10576144B2, “Amino acid and peptide conjugates and conjugation process” (AUCKLAND UNISERVICES LIMITED, priority 2014, dated 2020).
Residues, ends and D or L forms follow the SMILES beside them. *: point of attachment. Ethyl(2-palmitoyloxy) = CCCCCCCCCCCCCCCC(=O)OCC*; Palmitoyl = CCCCCCCCCCCCCCCC(=O)*

Columns and labels:
[1] = system: CD8+ T cell clone 1C11; experiment: CD8+ T cell clone activation assay, NY-ESO-1 118-143 constructs, autologous LCL as APC; type: cell-based, human
Description: Human CD4+ and CD8+ T cell clones were maintained at a concentration of 1-3×10^6/ml in RPMI 1640 supplemented with Glutamax, Penicillin/Streptomycin and 5% v/v human serum (“RS5”, all reagents from Life Technologie). Media was refreshed 50% v/v twice weekly. RS5 for CD4+ T cell clones was supplemented with IL-7 and IL-21, and RS5 for CD8+ T cell clones was supplemented with IL-7+IL-15 (all cytokines from PeproTech, used at a final concentration of 5 ng/ml).
Epstein-Barr Virus (“EBV”)-producing B95-8 MM cells were grown in RPMI 1640 supplemented with Glutamax, Penicillin/Streptomycin and 10% v/v fetal bovine serum (“RF10”, all reagents from Invitrogen) in T75 flasks (BD Biosciences). EBV-containing medium was collected and centrifuged to pellet non-adherent cells, and the EBV-containing supernatant then filter-sterilised (0.22 μm). 10×10^6 donor Peripheral Blood Mononuclear Cells (“PBMC”) were suspended in 1.5 ml RF10 in aT25 flask (BD Biosciences). 2.5 ml B95-8 cell culture supernatant was added and cells incubated for 2 hours. 1 ml fresh RF10 containing 5% v/v Phytohemaglutanin (“PHA”, Gibco) was then added (1% v/v final concentration). Flasks were monitored for outgrowth of B cell LCL, typically over 4-6 weeks, with transfer to a T75 flask (BD Biosciences) when required. LCL lines were cryopreserved and working stocks maintained in RF10 at 0.5-1.5×10^6/ml.
Donor LCL or MoDC (also referred to herein as antigen presenting cells or “APC”) were incubated for 16 h in RF10+ peptide/construct at desired concentration. In samples where Pam3Cys (“P3C”) and peptide moieties were both present but unconjugated, LCL were pre-treated with P3C for 30 minutes, and media then refreshed with RF10 containing both P3C and peptide. Untreated APC were incubated in RF10 only. APC/construct incubation was performed in 96 well plates (U-bottom, BD Biosciences) or in 48wp (flat bottom, BD Biosciences) depending of the nature of the assay and the numbers of APC required per treatment. Following incubation, APC were washed with RPMI 1640 4 times, to remove unbound construct/P3C. […]

[2] = system: CD4+ T cell clone 1D6; experiment: CD4+ T cell clone activation assay, NY-ESO-1 118-143 constructs, autologous LCL as APC; type: cell-based, human; conditions: LCL pulsed with construct; 147 tested +/−P3C; 116 and 115 titratable (FIG. 13)
Description: Epstein-Barr Virus (“EBV”)-producing B95-8 MM cells were grown in RPMI 1640 supplemented with Glutamax, Penicillin/Streptomycin and 10% v/v fetal bovine serum (“RF10”, all reagents from Invitrogen) in T75 flasks (BD Biosciences). EBV-containing medium was collected and centrifuged to pellet non-adherent cells, and the EBV-containing supernatant then filter-sterilised (0.22 μm). 10×10^6 donor Peripheral Blood Mononuclear Cells (“PBMC”) were suspended in 1.5 ml RF10 in aT25 flask (BD Biosciences). […] Flasks were monitored for outgrowth of B cell LCL, typically over 4-6 weeks, with transfer to a T75 flask (BD Biosciences) when required. […]
Data acquisition was performed using a BD FACSAria II with FACSDiva software, and data analysis was performed using FlowJo software (Treestar). Data were presented as the median fluorescence intensity (MFI)+SD of CD25 and CD134 expression on live clonal cells. […]

[3] = system: human monocytes; experiment: Activation of human monocytes in whole blood (CD80 up-regulation, flow cytometry); type: cell-based
Description: 100 μl of heparinised whole blood (WB) was incubated with 100 nM, 1 μM and 10 μM of each compound, in duplicate, and incubated overnight at 37° C. in a 5% CO2 humidified incubator. […] EMC Microcollections) was used as a positive control. To detect activation of monocytes, WB samples were stained with anti-CD14-FITC, anti-HLA-DR-Alexa700, anti-CD80-PE-Cy7, anti-CD40-PE, anti-CD86-APC, anti-CD16-APC-Cy7 (all from Biolegend) for 20 mins at RT, protected from light. Following incubation, 2 ml of BD FACS lyse (BD Biosciences) was added, incubated for 15 mins at RT, then washed twice with ice cold wash buffer (PBS, 1% Human Serum). Data acquisition was performed on a BD FACS Aria II (Becton Dickinson) and analysed using FlowJo software version 7.6.5 (TreeStar). CD80 receptor expression on monocytes was detected by gating on CD14+ HLADR+ cells.

## 147 (VPGVLLKEFTVSGNILTIRLTAADHR; C-terminal acid) [compound 147]
[1]; 100 nM
  T cell activation: No or negligible T cell activation
[1]; 1 μM, with exogenous P3C
  T cell activation: 75%
[1]; 1 μM, without exogenous P3C
  T cell activation: 60%
[2]
  response of clone 1D6: does not respond

## CCCCCCCCCCCCCCCC(=O)SC[C@H](N)C(=O)N[C@@H](CO)C(=O)N[C@@H](CCCCN)C(=O)N[C@@H](CCCCN)C(=O)N[C@@H](CCCCN)C(=O)N[C@@H](CCCCN)C(N)=O [compound 20] (H-C(Palmitoyl)SKKKK-NH2)
[3]; in three donors
  potency of CD80 up-regulation compared to 22 and 26: lower potency than 22 and 26

## CCCCCCCCCCCCCCCC(=O)OCCSC[C@H](NC(C)=O)C(=O)N[C@@H](CO)C(=O)N[C@@H](CCCCN)C(=O)N[C@@H](CCCCN)C(=O)N[C@@H](CCCCN)C(=O)N[C@@H](CCCCN)C(N)=O [compound 22] (Ac-C(Ethyl(2-palmitoyloxy))SKKKK-NH2)
[3]; 10 μM dose, in most donors
  potency of CD80 up-regulation compared to Pam3CSK4: equivalent potency to Pam3CSK4
[3]; all doses tested (100 nM, 1 μM, 10 μM), whole blood of five donors, overnight
  up-regulation of expression of CD80 on monocytes: strongly upregulated expression of CD80
